Measurements as given in patent US20250366472A1, “1-AMINOCYCLOPROPANE-1-CARBOXYLIC ACID OXIDASE INHIBITORS (ACO-I)” (Royal Holloway and Bedford New College, priority 2022, published 2025).
Like-named read-outs stand apart in the source and are kept apart here.

Assays:
wheat seedlings = experiment: Drought stress recovery of wheat seedlings; type: in vivo; conditions: 10 μM, 9 days drought, 19 days recovery
Experimental: The seeds of each plant were washed with 5% sodium hypochlorite for 15 minutes (with shaking at 120 rpm) and then washed three times in sterile distilled water. The seeds were placed on two layers of waterlogged 3 MM for ˜72 hours under lights at RT until hypocotyl emerged. 7-10 germinated seeds were incubated in sterile Magenta boxes containing 100 mL perlite per box, moistened with 60 ml sterile distilled water and autoclaved. The seeds were incubated in a growth cabinet with a 12 hour light/dark cycle at 22° C. until the first seedling reached approximately 5 cm height. This took approximately 4-5 days. The water was then replaced with 0.5×Hoagland solution with the test compounds (or DMSO for control samples) for 24 hour (Hoagland's No2 Basal salt mixture, Sigma, H2395, use 1.6 g/L in sterile water and autoclaved), and returned to growth cabinet. […]
The drought samples were exposed to drought conditions for 9 days by removing the media and returned to the growth cabinet. […] The plant recovery over time (up to 19 days post rescue) was recorded and the photographs from the end of the experiment are illustrated in FIG. 8, FIG. 9 and FIG. 11.
The drought testing was repeated with wheat seedlings and the results are shown in FIGS. 9 and 10 wherein the data was measured following 5 days of growth, 9 days of drought and 19 days of recovery. […]

barley seedlings = experiment: Drought stress recovery of barley seedlings; type: in vivo; conditions: 5 days growth, 9 days drought, 12 days watered
Experimental: (§1) The seeds of each plant were washed with 5% sodium hypochlorite for 15 minutes (with shaking at 120 rpm) and then washed three times in sterile distilled water. The seeds were placed on two layers of waterlogged 3 MM for ˜72 hours under lights at RT until hypocotyl emerged. 7-10 germinated seeds were incubated in sterile Magenta boxes containing 100 mL perlite per box, moistened with 60 ml sterile distilled water and autoclaved. The seeds were incubated in a growth cabinet with a 12 hour light/dark cycle at 22° C. until the first seedling reached approximately 5 cm height. This took approximately 4-5 days. The water was then replaced with 0.5×Hoagland solution with the test compounds (or DMSO for control samples) for 24 hour (Hoagland's No2 Basal salt mixture, Sigma, H2395, use 1.6 g/L in sterile water and autoclaved), and returned to growth cabinet. The media was then removed, the perlite was rinsed twice with sterile distilled water and the solution was replace with 35 ml 0.5 ×Hoaglands solution and returned to the growth cabinet for 24 hours.
The no drought sample was then grown in 0.5×Hoaglands solution and the solution was topped up daily.
The drought samples were exposed to drought conditions for 9 days by removing the media and returned to the growth cabinet. At recovery, 0.5×Hoaglands solution was added back to the drought sample Magenta boxes, up to the top of the perlite and this level was maintained during recovery. The plant recovery over time (up to 19 days post rescue) was recorded and the photographs from the end of the experiment are illustrated in FIG. 8, FIG. 9 and FIG. 11.
10 μM of 3-[(2E)-3-(4-fluorophenyl)prop-2-enoyl]-4-hydroxy-6-methyl-2H-pyran-2-one (labelled as 16B), 10 μM of 5,5-dimethyl-2-(2-phenylacetyl) cyclohexane-1,3-dione (labelled as 4B) and […] of AIB and 500 μM of POA were tested on barley seedlings.

rye seedlings = experiment: Drought stress recovery of rye seedlings; type: in vivo; conditions: 10 μM, 9 days drought
Experimental: as §1
The no drought sample was then grown in 0.5×Hoaglands solution and the solution was topped up daily. […]
The drought testing was repeated with rye seedlings and the results are shown in FIG. 11 wherein the data was measured following 5 days of growth, 9 days of drought and 19 days of recovery. […]

Carnations = experiment: Cut carnation flower senescence (flower size); type: in vivo; conditions: for slowing of flower senescence versus control: 0.01 mM or 0.02 mM, flower size after 9 days; for performance versus POA and AIB: 0.01/0.02 mM versus POA 0.5/1 mM, AIB 5/10 mM
Experimental: Carnations were cut to approximately 5 cm long stems and placed in a solution wherein the solution comprised 5 mL water and either no additional components (control), 0.01 mM or 0.02 mM of 5,5-dimethyl-2-(2-phenylacetyl) cyclohexane-1,3-dione (labelled as 4B) or 3-[(2E)-3-(4-fluorophenyl)prop-2-enoyl]-4-hydroxy-6-methyl-2H-pyran-2-one (labelled as 16B) or 0.5 mM or 1 mM of POA or 10 mM or 5mM of AIB were added. The flower size coverage was measured and the petal shrinkage, or reduction in flower size, is used as an indicator of flower senescence.

D. discoideum WT cells = experiment: D. discoideum multicellular development, block at mound stage; type: cell-based
Experimental: The effect of MyA on multicellular development of D. discoideum was measured. The MyA was tested at a concentration of 100 μM.
The effect of ACO loss on multicellular development was assessed. ACO-D. discoideum mutants were engineered and compared to standard wild type D. discoideum cells.

A. thaliana = A. thaliana root and hypocotyl extension after 6 days; type: in vivo; conditions: for concentration from which dose dependent effect on root/hypocotyl growth is seen: versus DMSO control, FIG. 6B; for potency compared to AIB: hypocotyl or root extension, from table 3; for effect on root and hypocotyl growth: FIG. 6A
Experimental: In these experiments, A. thaliana seeds were germinated and grown in 24 h light conditions for 6 days and root and hypocotyl length were recorded (FIG. 6A and 6B).
The IC50 values for the root or hypocotyl extension after 6 days for 5,5-dimethyl-2-(2-phenylacetyl) cyclohexane-1,3-dione (ACOi-84-16-4), 3-[(2E)-3-(4-fluorophenyl)prop-2-enoyl]-4-hydroxy-6-methyl-2H-pyran-2-one (ACOi-74-12-16) and MyA, compared to known compounds AIB and POA are presented in table 3. Images of the plant growth and the root hairs are shown in FIG. 6B for 5,5-dimethyl-2-(2-phenylacetyl) cyclohexane-1,3-dione (ACOi-84-16-4) and 3-[(2E)-3-(4-fluorophenyl)prop-2-enoyl]-4-hydroxy-6-methyl-2H-pyran-2-one (ACOi-74-12-16) and FIG. 6A for MyA and comparably for AIB and POA.

D. discoideum cells = experiment: Inhibition of D. discoideum unicellular growth (wild type); type: cell-based
Experimental: The unicellular growth rate and multicellular of D. discoideum cells on exposure to MyA was tested and the results are illustrated in FIG. 1 and FIG. 2.
D. discoideum cells were divided by binary fission in nutrient-rich media, initially with a lag phase (0-120 h), and then an exponential phase. The D. discoideum cells were then exposed to MyA at concentrations of 0 μm, 1 μm, 10 μm, 15 μm, 25 μm, 50 μm and 100 μm.

[1] = test system: ACO ablated D. discoideum cells (ACO-); experiment: Growth sensitivity of ACO-mutant D. discoideum cells to MyA; type: cell-based
Description: The cell and developmental role of the D. discoideum ACO protein were investigated. FIG. 3C illustrates the resistance to the growth and developmental inhibitory effect of MyA on wild type D. discoideum cells (WT) and ACO ablated D. discoideum cells (ACO-).

ethylene production = experiment: Ethylene production of D. discoideum cells, headspace GCMS; type: cell-based; conditions: 500 μM
Experimental: Wild type cells in the presence or absence of MyA (500 μM), or ACO-cells were maintained in sealed small flasks with limited head space over 36 h, and headspace gas was taken at 6-hour intervals and analysed by GCMS.

[2] = test system: csA, cAR1, pspA, ecmA expression; experiment: Developmental gene expression in D. discoideum by qPCR; type: cell-based; conditions: 100 μM, 0 to 20 hours
Experimental: To provide quantitative analysis of the developmental effects of MyA, wild type cells were induced to develop on nitrocellulose filters for time periods between 0 and 20 hours, using cells under solvent only conditions, in the presence of MyA (100 μM), or in the presence of MyA and CEPA. Developmental gene expression associated with early aggregation (csA), […], and in late development (ecmA) were assessed using qPCR. […] Similar delays in peak gene expression were also seen for carA (peak 4 h), and pspA (peak 12 h), and ecmA (peak 20 h), following MyA treatment, and these delays were rescued by addition of exogenous ethylene. These experiments confirm a MyA-dependent delay in D. discoideum development that is rescued by exogenous ethylene application, consistent with a role for MyA in inhibiting ACO activity and slowing crop maturation.

[3] = Arabidopsis thaliana, 144 h, Hypocotyl, 6 days, read-out: IC50 hypocotyl extension
[4] = Arabidopsis thaliana, 144 h, Root, 6 days, read-out: IC50 root extension
[5] = Hypocotyl, 6 days, read-out: IC50 hypocotyl extension

| Structure (SMILES) | recovery after drought (barley seedlings; 10 μM) | slowing of flower senescence versus control (Carnations) | performance versus POA and AIB (Carnations) | efficacy in development block model (D. discoideum WT cells; 100 μM) | concentration from which dose dependent effect on root/hypocotyl growth is seen (A. thaliana; 6 days) [μm] | IC50 (A. thaliana; [3]) [µM] | IC50 (A. thaliana; [4]) [µM] | potency compared to AIB (A. thaliana) | effect on root and hypocotyl growth (A. thaliana; 6 days) | IC50 (A. thaliana; [5]) [µM] | also measured |
| --- | --- | --- | --- | --- | --- | --- | --- | --- | --- | --- | --- |
| Cc1cc(O)c(C(=O)/C=C/c2ccc(F)cc2)c(=O)o1 [ACOi-74-12-16, 3-[(2E)-3-(4-fluorophenyl)prop-2-enoyl]-4-hydroxy-6-methyl-2H-pyran-2-one] | comparable seedling height to the control sample which had been watered throughout the duration | significant effect | comparable performance | potent efficacy | 5 | 0.79 | 1.02 | 1580 fold | – | – | recovery after drought versus untreated drought control (wheat seedlings): improved recovery; seedling height and mass versus drought control (wheat seedlings; FIG. 10): increased height and mass; recovery after drought versus untreated drought control (rye seedlings; 19 days recovery): improved recovery; recovery after drought (rye seedlings; 23 days recovery): continues to recover |
| CC1(C)CC(=O)C(C(=O)Cc2ccccc2)C(=O)C1 [ACOi-84-16-4, 5,5-dimethyl-2-(2-phenylacetyl)cyclohexane-1,3-dione] | comparable growth to the same treated with 10,000 μM AIB | significant effect | comparable performance | potent efficacy | 5 | 8.2 | 6.9 | over 5400 fold | – | – | – |
| CC(C)(N)C(=O)O [AIB, a-aminoisobutyric acid, reference compound] | – | – | – | – | – | – | – | – | dose-dependent reduction | 4290 | recovery after drought (barley seedlings; 2,000 μM): did slightly better; recovery after drought (barley seedlings; 10,000 μM): did better still; IC50 (A. thaliana; Root, 6 days, read-out: IC50 root extension): 1620 µM |
| CC1C(=O)C(C(=O)CCc2ccccc2)C(=O)C(C)(C)C1=O (centres unmarked) [MyA, 2,2,4-trimethyl-6-(3-phenylpropanoyl) cyclohexane-1,3,5-trione] | – | – | – | – | – | 59.4 | 53.3 | – | comparative reduction | – | effect on unicellular growth (D. discoideum cells; 10 μM, P<0.05): significant reduction; effect on unicellular growth (D. discoideum cells; 100 μM): block in growth; IC50 (D. discoideum cells; Dictyostelium discoideum, wild type D. discoideum, secondary plot of normalised growth rate): 7.6 µM; reduction in potency in the ACO-mutant versus wild type [1]: four-fold; IC50 ([1]; Dictyostelium discoideum, ACO- D. discoideum cells): 29.9 µM; decrease in ethylene production (ethylene production; 12 hours, P=0.031): 39.5%; decrease in ethylene production (ethylene production; 36 hours, P=0.0025): 37.9%; peak expression of developmental genes (csA, carA, pspA, ecmA) [2]: delayed; effect on multicellular development (D. discoideum WT cells; 100 μM, 24 hours): later stages of development were delayed; development after extended incubation (D. discoideum WT cells; 100 μM, 36 hours): developed into fully mature fruiting bodies; lethality of high dose (D. discoideum WT cells; 100 μM, 36 hours): not lethal; rescue of developmental delay by exogenous ethylene (CEPA) (D. discoideum WT cells; MyA 100 μM plus CEPA): partially rescued; lowest concentration shown to have an effect on growth (A. thaliana; root and hypocotyl, 6 days, 24 h light): 0.025 mM; lowest effective concentration, times lower than AIB (A. thaliana; versus AIB): 20 times; lowest effective concentration, times lower than POA (A. thaliana; versus POA): 4 times |
| O=C(O)c1cnccn1 [POA, pyrazinecarboxylic acid, reference compound] | – | – | – | – | – | – | 213 | – | dose-dependent reduction | 184 | recovery after drought (barley seedlings; 500 μM): did not show positive result |
